According to patent publication US20260234161A1, “RIFABUTIN ANALOGS FOR THE TREATMENT OF BACTERIAL DISEASES” (BIOVERSYS AG, priority 2023, published 2026):
Converted amounts (≈) assume the structure as drawn.

Assays:
Assay type in all cases: cell-based
[1] = test system: S. aureus (UAMS-1625 strain); assay: MIC by broth microdilution, S. aureus; conditions: Staphylococcus aureus, 20 h, read-out: MIC S. aureus
Protocol: (§1) MIC values were determined by broth microdilution method according to the CLSI guidelines with the following exceptions: MIC against A. baumannii was performed in RPMI medium supplemented with 10% FCS and MIC against M. abscessus was performed in Middlebrook 7H9 broth supplemented with Middlebrook ADC growth supplement (10%; see column “M. abscessus 7H9”). MIC forM abscessus was determined a second time in standard cation adjusted Mueller Hinton broth without growth supplement (see colum “M. abscessus MH”). All other MIC were performed in standard cation adjusted Mueller Hinton broth, supplemented with Middlebrook ADC growth supplement (5%) for the slow growing mycobacteria (M. xenopi, M. kansasii and M. avium).
(§2) The following procedure applies to all species tested, except forM xenopi. From a fresh culture plate (from overnight to several days depending on the bacteria), cells were resuspended in 0.9% (w/v) saline solution and bacterial inoculum was prepared in the respective testing medium with 5×10^5 CFU/mL. For M. xenopi, the inoculum was prepared from a fresh liquid culture (7H9+ADC). The appropriate volumes of a 10 mg/mL compound solution were directly dispensed in the 96-well assay plate using a digital dispenser to create two-fold dilution series from 32 to 0.002 μg/mL final concentration for A. baumannii and S. aureus; from 16 to 0.016 μg/mL for M. abscessus and M. avium; and from 1 to 6×10^−5 μg/mL for M. kansasii and M. xenopi. 100 μL of bacterial suspension was finally added to the compounds. Plates were covered and incubated without shaking at 35° C. for 20 hours for A. baumanii and S. aureus; at 30° C. for 4 days for M. abscessus; and at 37° C. for 7 days (at least) for M. kansasii (covered with aluminum foil to avoid light exposure), M. avium and M. xenopi. Every experiment contained an antibiotic as quality control. MIC was determined visually as the lowest concentration of a compound that prevents visible growth of the bacteria.
(§3) The in vitro activity of compounds described herein was determined against S. aureus (UAMS-1625 strain), A. baumannii (HUMC1 strain), M. abscessus (ATCC 19977), M. kansasii (ATCC 12478), M. avium (ATCC 25291), and M. xenopi (ATCC 19250).

[2] = test system: A. baumannii (HUMC1 strain); assay: MIC by broth microdilution, A. baumannii (RPMI + 10% FCS); conditions: Acinetobacter baumannii; HUMC1 strain; RPMI medium + 10% FCS; 35° C., 20 hours; read-out: MIC A. baumannii
Protocol: as §1, §2, §3

[3] = test system: M. abscessus (ATCC 19977); assay: MIC by broth microdilution, M. abscessus in cation adjusted Mueller Hinton broth; conditions: Mycobacteroides abscessus, ATCC19977, 96 h; ATCC 19977; cation adjusted Mueller Hinton broth without growth supplement; 30° C., 4 days; read-out: MIC M. abscessus MH
Protocol: as §1, §2, §3

Structure (SMILES)	MIC [1] [µg/mL]	MIC [2] [µg/mL]	MIC [3] [µg/mL]
CO[C@H]1/C=C/O[C@@]2(C)Oc3c(C)c(O)c4c(c3C2=O)C2=NC3(CCN(CC(C)C)CC3)NC2=C(NC(=O)/C(C)=C\C=C\[C@H](C)[C@H](O)[C@@H](C)[C@@H](O)[C@@H](C)[C@H](OC(=O)N2CCN(CCc3ccccc3)CC2)[C@@H]1C)C4=O [Compound 46]	0.25 (≈ 0.245 µM)	0.25	0.5 (≈ 0.49 µM)
COCCN1CCN(C(=O)O[C@H]2[C@H](C)[C@H](O)[C@H](C)[C@@H](O)[C@@H](C)/C=C/C=C(/C)C(=O)NC3=C4NC5(CCN(CC(C)C)CC5)N=C4c4c(c(O)c(C)c5c4C(=O)[C@@](C)(O/C=C/[C@H](OC)[C@H]2C)O5)C3=O)CC1 [Compound 48]	0.06 (≈ 0.0615 µM)	≤ 0.016	1 (≈ 1.03 µM)
CO[C@H]1/C=C/O[C@@]2(C)Oc3c(C)c(O)c4c(c3C2=O)C2=NC3(CCN(CC(C)C)CC3)NC2=C(NC(=O)/C(C)=C\C=C\[C@H](C)[C@H](O)[C@@H](C)[C@@H](O)[C@@H](C)[C@H](OC(=O)N2CCN(CC(C)(C)C)CC2)[C@@H]1C)C4=O [Compound 49]	0.5 (≈ 0.506 µM)	1	0.125 (≈ 0.127 µM)
CO[C@H]1/C=C/O[C@@]2(C)Oc3c(C)c(O)c4c(c3C2=O)C2=NC3(CCN(CC(C)C)CC3)NC2=C(NC(=O)/C(C)=C\C=C\[C@H](C)[C@H](O)[C@@H](C)[C@@H](O)[C@@H](C)[C@H](OC(=O)N2CCNCC2)[C@@H]1C)C4=O [Compound 51]	0.016 (≈ 0.0174 µM)	≤ 0.001	4 (≈ 4.36 µM)
CO[C@H]1/C=C/O[C@@]2(C)Oc3c(C)c(O)c4c(c3C2=O)C2=NC3(CCN(CC(C)C)CC3)NC2=C(NC(=O)/C(C)=C\C=C\[C@H](C)[C@H](O)[C@@H](C)[C@@H](O)[C@@H](C)[C@H](OC(=O)N2CCN(CCC(C)C)CC2)[C@@H]1C)C4=O [Compound 52]	0.25 (≈ 0.253 µM)	0.06	0.125 (≈ 0.127 µM)
CO[C@H]1/C=C/O[C@@]2(C)Oc3c(C)c(O)c4c(c3C2=O)C2=NC3(CCN(CC(C)C)CC3)NC2=C(NC(=O)/C(C)=C\C=C\[C@H](C)[C@H](O)[C@@H](C)[C@@H](O)[C@@H](C)[C@H](OC(=O)N2CCN(CC3CCOCC3)CC2)[C@@H]1C)C4=O [Compound 53]	0.125 (≈ 0.123 µM)	0.004	0.125 (≈ 0.123 µM)
CO[C@H]1/C=C/O[C@@]2(C)Oc3c(C)c(O)c4c(c3C2=O)C2=NC3(CCN(CC(C)C)CC3)NC2=C(NC(=O)/C(C)=C\C=C\[C@H](C)[C@H](O)[C@@H](C)[C@@H](O)[C@@H](C)[C@H](OC(=O)N2CCN(CC(C)C)CC2)[C@@H]1C)C4=O [Compound 54]	0.125 (≈ 0.128 µM)	0.03	0.06 (≈ 0.0617 µM)
CO[C@H]1/C=C/O[C@@]2(C)Oc3c(C)c(O)c4c(c3C2=O)C2=NC3(CCN(CC(C)C)CC3)NC2=C(NC(=O)/C(C)=C\C=C\[C@H](C)[C@H](O)[C@@H](C)[C@@H](O)[C@@H](C)[C@H](OC(=O)N2CCN(Cc3ccco3)CC2)[C@@H]1C)C4=O [Compound 55]	0.125 (≈ 0.125 µM)	≤ 0.016	2 (≈ 2.01 µM)
CO[C@H]1/C=C/O[C@@]2(C)Oc3c(C)c(O)c4c(c3C2=O)C2=NC3(CCN(CC(C)C)CC3)NC2=C(NC(=O)/C(C)=C\C=C\[C@H](C)[C@H](O)[C@@H](C)[C@@H](O)[C@@H](C)[C@H](OC(=O)N2CCN(c3nccs3)CC2)[C@@H]1C)C4=O [Compound 57]	0.06 (≈ 0.06 µM)	0.03	0.5 (≈ 0.5 µM)
CO[C@H]1/C=C/O[C@@]2(C)Oc3c(C)c(O)c4c(c3C2=O)C2=NC3(CCN(CC(C)C)CC3)NC2=C(NC(=O)/C(C)=C\C=C\[C@H](C)[C@H](O)[C@@H](C)[C@@H](O)[C@@H](C)[C@H](OC(=O)N2C[C@@H]3C[C@H]2CN3CC2CCCCC2)[C@@H]1C)C4=O [Compound 58]	0.125 (≈ 0.122 µM)	0.03	0.125 (≈ 0.122 µM)
CCCN1CCN(C(=O)O[C@H]2[C@H](C)[C@H](O)[C@H](C)[C@@H](O)[C@@H](C)/C=C/C=C(/C)C(=O)NC3=C4NC5(CCN(CC(C)C)CC5)N=C4c4c(c(O)c(C)c5c4C(=O)[C@@](C)(O/C=C/[C@H](OC)[C@H]2C)O5)C3=O)CC12CC2 [Compound 59]	0.25 (≈ 0.254 µM)	0.03	0.125 (≈ 0.127 µM)
